In publication PMC12051620, “Molecular basis underlying the specificity of an antagonist AA92593 for mammalian melanopsins” (The Journal of Biological Chemistry, 2025):

Target: T1, human melanopsin WT (Homo sapiens, UniProt Q9UHM6)
T1 construct: expressed in transfected cells; host or cells: COS-1
T1 sequence (Q9UHM6 1-384 limits assumed): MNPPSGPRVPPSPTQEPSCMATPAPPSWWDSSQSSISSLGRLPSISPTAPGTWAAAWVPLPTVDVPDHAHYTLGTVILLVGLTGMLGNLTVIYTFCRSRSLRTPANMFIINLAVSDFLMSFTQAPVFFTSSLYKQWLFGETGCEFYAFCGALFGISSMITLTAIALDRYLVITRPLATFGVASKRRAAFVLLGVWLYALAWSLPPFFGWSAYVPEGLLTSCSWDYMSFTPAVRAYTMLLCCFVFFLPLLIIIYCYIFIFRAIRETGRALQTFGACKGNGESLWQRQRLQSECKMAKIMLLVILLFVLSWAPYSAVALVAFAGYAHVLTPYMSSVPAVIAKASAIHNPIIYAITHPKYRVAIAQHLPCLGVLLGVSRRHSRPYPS
Assay: GsX GloSensor assay with Gsα/q11 (light-induced cAMP response)
Type: cell-based
Conditions: COS-1 cells
Excerpt: To quantify the antagonistic effects of AA92593 on mammalian melanopsins, we used the GsX GloSensor assay ([12], [13], [14]). This assay measures GPCR-induced increases in intracellular cAMP levels even for Gq-, Gi/o-, or G12-coupled receptors by using Gsα chimeras ([12], [13], [14]). Because melanopsin is primarily coupled with Gq-type G proteins, a Gsα mutant with 11 C-terminal sequence of Gqα (Gsα/q11) was expressed in COS-1 cells with melanopsin and a luciferase-based cAMP biosensor (see “Experimental procedures”) ([15]). This assay enables the measurement of Gq activation by melanopsin as cAMP production (an increase in luminescence). In this study, we used C-terminal–truncated melanopsin constructs to increase the expression levels with minimal compromise in functionality ([9], [16], [17], [18], [19]). […] In addition, the C-terminal region is located far from the binding site of AA92593 (see below). Hereafter, the C-terminal–truncated melanopsin constructs are named as “WT.”
In the constructs for melanopsin expression (opsin name - GenBank ID: human melanopsin - NM_033282.4, mouse melanopsin - NM_013887.2, Xenopus Opn4x - NM_001085674.1, chicken opn4-1 - NM_001397961.1, B. belcheri melanopsin - AB205400.1, and B. lanceolatum melanopsin - MF464477.1), the C-terminal amino acid residues (94, 140, 200, 214, 296, and 308 residues for human ([9]), mouse ([9]), Xenopus, chicken, belcheri ([16]), and lanceolatum melanopsins, respectively) were removed, the 1D4 tag sequence (ETSQVAPA) was added, and inserted into the EcoRI/NotI site in a mammalian expression vector pMT. Jumping spider rhodopsin-1 (GenBank ID: AB251846.1) was also added with the 1D4 tag and inserted into pMT vector. Human and mouse melanopsins, and jumping spider rhodopsin-1 in pCDNA3.1 were kindly provided from Drs. Akihisa Terakita and Mitsumasa Koyanagi (Osaka Metropolitan University). In this paper, each opsin with the C-terminal sequence modifications as described above is denoted “WT.” Bovine Gsα and its mutants Gsα/q11 and Gsα/i11 (C-terminal 11 residues are replaced with Gqα and Giα, respectively) were also inserted into the pMT vector. The GFP-tagged melanopsin constructs, in which EGFP protein fused with C-termini of melanopsins, were prepared as previously described ([9], [50]). […]
For GloSensor assay, opsins, GloSensor assay sensor (coded by pGlo-22F), and NanoBiT-tagged G proteins were transiently expressed in COS-1 cells (kindly provided from Dr David Farrens, Oregon Health and Science University) using PEI as described previously ([24], [52]). […] For GFP-fluorescence microscopy, a 35-mm cell culture dish (IWAKI) was transfected with 2 μg melanopsin-GFP plasmid and 8 μg PEI in 400 μl Opti-mem and 1.2 ml D-MEM. […]

[1] = relative peak cAMP response vs no AA92593

## COc1ccc(S(=O)(=O)N2CCCCC2)cc1C [AA92593]
  Hill fitting parameter rate of dose-response curve: −0.92 ± 0.21
0.1 μM 9-cis-retinal, white light 10 s, n = 3, read-out: IC50, reduction in peak cAMP responses upon Gsα/q11 activation
  IC50: 1.05 ± 0.28 µM
[1]
  Hill fitting parameter max of dose-response curve: 102.59 ± 2.72
  Hill fitting parameter min of dose-response curve: 13.65 ± 7.28
